Assay results: patent US20260076923A1, “METHOD AND COMPOSITION TO REDUCE OR INHIBIT ADVANCED GLYCATION END-PRODUCTS” (NANJING NUTRABUILDING BIO-TECH CO., LTD., priority 2023, published 2026)

Assays:
SOD = SOD activity in skin of D-galactose-injected mice; assay type: in vivo, Kunming mice; conditions: end of the trial (14th week), 100 mg/kg each s.c. once daily for 6 weeks, compared to non-supplementation group, FIG. 5
Experimental: (§1) Six-week-old, male, Kunming mice (n=40), weighed about 30±2 g, were obtained from Cavens Lab Animal (Changzhou, China) and housed in a controlled room (25±2° C., 60% relative humidity, 12 h light/dark cycle) with free access to water and standard laboratory diet. After an acclimation period (1 week), mice were randomly divided into four groups. Each mouse's back skin was chosen as the experimental observation area, a razor was used to shave off the back hair. 5% sodium sulfide solution was applied to the back to remove the hair.
(§2) All mice were then injected subcutaneously with same volume of D-galactose (1000 mg/kg), once a day for 8 weeks. During the entire experiment, the daily food intake and weight of each mouse were recorded every day, and the D-galactose injection dose were adjusted according to the weight change.
(§3) The four groups were non-supplement group (Con, Group 1); THC supplement group (100 mg/kg, Group 2); EGT supplement group (100 mg/kg, Group 3); and EGT+THC supplement group (100 mg/kg EGT+100 mg/kg THC, Group 4). Mice in groups 2-4 were injected subcutaneously (s.c.) into their back skins with the corresponding concentration before each major meal once daily for 6 weeks. […]
(§4) Oxidative stress is increased during aging. […] The levels of H2O2, SOD, CAT, GSH, and GSH-Px in the skin were detected with relative kits as reference. […]

GSH = GSH activity in skin of D-galactose-injected mice; assay type: in vivo, Kunming mice; conditions: end of the trial (14th week), 100 mg/kg each s.c. once daily for 6 weeks, compared to non-supplementation group, FIG. 7
Experimental: as §1, §2, §3, §4

CAT = CAT activity in skin of D-galactose-injected mice; assay type: in vivo, Kunming mice; conditions: end of the trial (14th week), 100 mg/kg each s.c. once daily for 6 weeks, compared to non-supplementation group, FIG. 6
Experimental: as §1, §2, §3, §4

GSH-Px = GSH-Px activity in skin of D-galactose-injected mice; assay type: in vivo, Kunming mice; conditions: end of the trial (14th week), 100 mg/kg each s.c. once daily for 6 weeks, compared to non-supplementation group, FIG. 8
Experimental: as §1, §2, §3, §4

AGEs = assay: Measurement of glycation: BSA incubated with D-ribose, fluorescence of the AGEs; assay type: biochemical, bovine; conditions: BSA 1 mg/ml + D-ribose 10 mM in PBS, 37° C., 10 days; THC 10 mM and/or EGT 10 mM; λex=380 nm, λem=450 nm; FIG. 1
Experimental: The formulation of glycation products was observed placing together a bovine serum albumin (BSA) and D-ribose in the absence of THC and EGT, and in the presence of THC only, EGT only and THC and EGT combination.
Specifically, a solution of BSA at a concentration of 1 mg/ml dissolved in phosphate-buffered saline (PBS) was incubated at 37° C. for 10 days with D-ribose at a concentration of 10 mM, in the absence of THC and EGT (Group 1), and the presence of THC only (10 mM, Group 2), EGT only (10 mM, Group 3) and the THC (10 mM) and EGT (10 mM) combination (Group 4).
So, the glycation was evaluated by measuring the fluorescence of the AGEs at λem=450 nm emitted by each sample after excitation at λex=380 nm. The inhibition of glycation was visualized by the decrease in fluorescence compared with the samples treated with the sugar alone.

C[N+](C)(C)[C@@H](Cc1c[nH]c(=S)[nH]1)C(=O)[O-] [EGT, ergothioneine]
SOD activity (SOD): significantly improved
GSH activity (GSH): significantly improved
CAT activity (CAT): significantly improved
GSH-Px activity (GSH-Px): significantly improved
percentage inhibition of fluorescence of the AGEs relative to the control (anti-glycation activity) (AGEs): fabulous anti-glycation activity
